Where two headings read alike, the source gives them in different places.
Assays:
[1] = test system: cells; details: 40 nM of rapamycin per well; cited from earlier work
[2] = test system: human estrogen receptor ligand-binding domain (hER-LBD); assay: intramolecular protein folding sensor (split TK fragments flanking ER-LBD), TK enzyme uptake in 293T cells; type: cell-based
Description: FIG. 2b illustrates a schematic diagram of the intramolecular folding sensor construct with the split TK fragments on either side of the estrogen receptor ligand binding domain (ER-LBD), and each construct was made by cloning into a pcDNA3.1 (+) plasmid backbone, under control of a CMV promoter. […] The error bar is the standard error of the mean for three samples.
All experiments were conducted with comparison to a positive control derived from the activity of intact TK, and a mock transfection acting as a negative control.

[3] = test system: 293T cells stably expressing nTK(V119C)-FRB plus FKBP12-cTK; assay: microPET imaging with [18F]-FHBG of subcutaneous 293T xenografts in living mice; type: in vivo
Excerpt: The signal from each implant was quantified directly from the microPET images to determine the % ID/g for the FHBG probe. […] The animals were repeatedly imaged on day 1 (before rapamycin), day 2 (one dose post rapamycin) and day 5 (3 doses post rapamycin) of this imaging protocol, i.e. after 1 week of initial xenograft growth. […] In another group of 4 mice, xenografts expressing nTK(V119C)-FRB plus FKBP12-cTK were compared with control implants stably expressing nTK plus cTK only (also in a single vector).
All animal handling and care was performed in accordance with Stanford University Animal Research Committee guidelines. […] The cells were allowed to grow as tumors for 7 days (to ˜0.3-0.4 cm in diameter). On day 8 mice were tail vein injected with 200 μCi of [^18F]-FHBG after undergoing anesthesia with 2% isoflurane in oxygen at 2 L/min. Three hours later, mice were microPET imaged in a spread prone position in a FOCUS microPET scanner (Concorde Microsystems, Knoxville, Tenn.). […] Immediately after imaging the animals were intraperitoneally injected with 50 μg of rapamycin; 24 h later all the animals were re-subjected to microPET imaging as mentioned above. The animals were further injected with intraperitoneal 50 μg rapamycin for two more days at 24 h intervals and subjected to repeat microPET imaging. In a separate cohort of 4 control mice, the above temporal imaging studies were performed in an identical fashion except that no rapamycin was administered. […] This % ID/g is a measure of the amount of tracer accumulated in a given tissue site normalized to the injected amount and to the mass of the tissue examined. […] For statistical analysis, the 2-tailed Student t-test was used. Differences were considered significant at P<0.05.

[4] = target: FKBP12 (Homo sapiens, UniProt P62942); details: stable 293T cells, with 40 nM rapamycin, 36 h
Sequence of FKBP12 (P62942 whole entry, added parts left off): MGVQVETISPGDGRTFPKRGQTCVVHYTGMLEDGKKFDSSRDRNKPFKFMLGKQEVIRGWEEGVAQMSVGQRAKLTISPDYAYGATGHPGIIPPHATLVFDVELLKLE

[5] = target: FM (F36M) mutant FKBP12 (Homo sapiens, UniProt P62942, F37M)
Sequence of FM (F36M) mutant FKBP12 (P62942 whole entry F37M): as the sequence (P62942 whole entry, added parts left off) above, with F37M counted along it
Excerpt: (§1) Twenty-four hours later we added FK506 to these cells and, using an in vitro [8-^3H]Penciclovir cell uptake assay, measured either the time- or dose-dependent changes in homodimer dissociation and consequent diminished TK complementation.
as §1

[6] = target: HSV1-sr39TK (Human herpesvirus 1, UniProt Q9QNF7, A168F/F161L/I160F/L159I/L169M); assay: self-complementation of split TK fragments without attached proteins, TK enzyme uptake in 293T cells; type: cell-based, herpes simplex virus type 1
Excerpt: To confirm or refute this finding we performed a separate PCA study using another pair of known interacting proteins, after replacing FRB and FKBP12 with Id and MyoD respectively (FIG. 2a, and FIG. 12). […] We tested the interaction of Id and MyoD upon transient co-expression of the fusion proteins nTK-Id and MyoD-cTK in 293T cells, followed by an in vitro TK enzyme cellular uptake assay to detect dimerization-assisted complementation of the TK fragments. Again, this same orientation of chimeras using Id and MyoD was used previously in PCAs with split Firefly luciferase and Renilla luciferase. We compared this with complementation obtained using the previous chimeras containing FRB and FKBP12, before and after addition of rapamycin. As negative controls we also assayed for TK activity upon single- and co-expression of nTK and cTK fragments without any attached proteins to check whether any measured TK activity might originate in either the N-terminal or C-terminal fragments of TK alone, or perhaps by their spontaneous self-complementation even without attached proteins. The results, shown in FIG. 12, confirmed the findings described above using the FRB/FKBP12/rapamycin system (FIGS. 9, 10, 12).

[7] = target: FKBP12-cTK (human; herpes simplex virus type 1, UniProt P62942 1-108); assay: cell-based or functional assay
[8] = 293T cells, 24 h treatment, P<0.05

## CO[C@H]1C[C@@H]2CC[C@@H](C)[C@@](O)(O2)C(=O)C(=O)N2CCCC[C@H]2C(=O)O[C@H]([C@H](C)C[C@@H]2CC[C@@H](O)[C@H](OC)C2)CC(=O)[C@H](C)/C=C(\C)[C@@H](O)[C@@H](OC)C(=O)[C@H](C)C[C@H](C)/C=C/C=C/C=C/1C [rapamycin]
[1]
  toxicity to cells: non-toxic

## Cc1c(-c2ccc(O)cc2)nn(-c2ccc(O)cc2)c1-c1ccc(OCCN2CCCCC2)cc1 [MPP, methyl piperidinylethoxy pyrazole]
[2]; [8]
  level of intramolecular-folding-assisted complementation versus carrier control-treated cells: significantly higher

## Nc1nc2c(ncn2CCC(CO)C[18F])c(=O)[nH]1 (stereo not shown) [FHBG, 9-(4-[^18F]-fluoro-3-hydroxymethylbutyl)-guanine]
[3]; animals imaged in the prone position
  probe % ID/g in shoulder tumors: 1.02 % ID/g
[3]; animals imaged in the supine position
  probe % ID/g in shoulder tumors: 0.89 % ID/g
[3]; control implants stably expressing nTK plus cTK only, fifth day, with rapamycin
  FHBG accumulation in control tumors: minimal
[3]; mock transfected cells
  mean % ID/g for FHBG accumulation, background: 0.28±0.10 % ID/g
[3]; tumor of cells transfected with nTK(V119C)-FRB plus FKBP12-cTK, after 5 days of daily rapamycin
  mean % ID/g for FHBG accumulation: 4.37±1.74 % ID/g

## CCCc1c(-c2ccc(O)cc2)nn(-c2ccc(O)cc2)c1-c1ccc(O)cc1 [PPT, 1,3,5-tris(4-hydroxyphenyl)-4-propyl-1H-pyrazole]
[2]; [8]
  level of intramolecular-folding-assisted complementation versus carrier control-treated cells: significantly higher

## 4-hydroxytamoxifen [4-OHT]
[2]
  level of intramolecular-folding-assisted complementation versus carrier control-treated cells: significantly higher

## CC[C@@H]1/C=C(\C)C[C@H](C)C[C@H](OC)[C@H]2O[C@@](O)(C(=O)C(=O)N3CCCC[C@H]3C(=O)O[C@H](/C(C)=C/[C@@H]3CC[C@@H](O)[C@H](OC)C3)[C@H](C)[C@@H](O)CC1=O)[C@H](C)C[C@@H]2OC [ascomycin]
[4]
  effect of increasing concentration on TK complementation: reduction in TK complementation
[4]; 0 to 16 μM
  smallest concentration required to initiate the competitive inhibition of rapamycin: 0.5 µM
[5]; Five μM FK506, within 30 min
  dissociation of complexes (fraction): about two-thirds
[5]; up to 5 μM, after 24 hr of exposure
  change of TK activity with increasing doses: incremental reduction of TK activity

B1: nTK: N-terminal TK fragment comprising the amino acids Met-1 to Thr-265 (protein)
chain: MASYPCHQHASAFDQAARSRGHSNRRTALRPRRQQEATEVRLEQKMPTLLRVYIDGPHGMGKTTTTQLLVALGSRDDIVYVPEPMTYWRVLGASETIANIYTTQHRLDQGEISAGDAAVVMTSAQITMGMPYAVTDAVLAPHIGGEAGSSHAPPPALTLIFDRHPIAALLCYPAARYLMGSMTPQAVLAFVALIPPTLPGTNIVLGALPEDRHIDRLAKRQRPGERLDLAMLAAIRRVYGLLANTVRYLQCGGSWREDWGQLSGT
[6]
  TK activity upon single- or co-expression of fragments without attached proteins: no activity

B2: nTK-FRB (other)
chain: MASYPCHQHASAFDQAARSRGHSNRRTALRPRRQQEATEVRLEQKMPTLLRVYIDGPHGMGKTTTTQLLVALGSRDDIVYVPEPMTYWRVLGASETIANIYTTQHRLDQGEISAGDAAVVMTSAQITMGMPYAVTDAVLAPHIGGEAGSSHAPPPALTLIFDRHPIAALLCYPAARYLMGSMTPQAVLAFVALIPPTLPGTNIVLGALPEDRHIDRLAKRQRPGERLDLAMLAAIRRVYGLLANTVRYLQCGGSWREDWGQLSGTGGGGSILWHEMWHEGLEEASRLYFGERNVKGMFEVLEPLHAMMERGPQTLKETSFNQAYGRDLMEAQEWCRKYMKSGNVKDLTQAWDLYYHVFRRISK
[7]
  complemented TK activity in the absence of rapamycin, against mock transfection, 293T cells: 2.3 fold above mock transfection levels
  relative gain in complemented TK activity after rapamycin administration, 293T cells: ~3 fold induction
  split TK complementation in SKBr3 human breast cancer cells, with rapamycin: ~3 fold rise
  split TK complementation in SKOV3 human ovarian cancer cells, with rapamycin: ~3 fold rise

B3: cTK: C-terminal TK fragment comprising the amino acids Ala-266 to Asn-376 (protein)
chain: AVTPQGAEPQSNAGPRPHIGETLFTLFRAPELLAPNGDLYNVFAWALDVLAKRLRPMHVFILDYDQSPAGCRDALLQLTSGMVQTHVTTPGSIPTICDLARTFAREMGEAH
[6]
  TK activity upon single- or co-expression of fragments without attached proteins: no activity

— patent US20090075313A1, “Split protein fragments, split protein systems, methods of making split protein systems, and methods of using split protein systems” (Stanford University, priority 2007, published 2009)
